Experimental data: the supplement of paper PMC5908809

Key:
[1] = tested on: normal NK cells expanded with K562-aAPC; experiment: percent inhibition of viability; higher = more inhibition; settings: 72 h, IL-2 2.5 ng/mL
Experimental: (§1)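 Drug sensitivity and resistance testing on K562-aAPC-expanded normal NK cells: 5 concentrations (10-fold steps over a 10,000-fold range), 72 h at 37 °C, viability by CellTiter-Glo normalised to DMSO and benzethonium chloride controls; DSS from the fitted curve.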

DERL-7 (IL-2 2.5 ng/mL) [2] = experiment: as above; settings: 72 h
IMC-1 (IL-2 20 ng/mL) [3] = experiment: as above; settings: 72 h
KAI3 (IL-2 2.5 ng/mL) [4] = experiment: as above; settings: 72 h
KHYG-1 (IL-2 2.5 ng/mL) [5] = experiment: as above; settings: 72 h
NK-92 (IL-2 2.5 ng/mL) [6] = experiment: as above; settings: 72 h
NK-YS (IL-2 2.5 ng/mL) [7] = experiment: as above; settings: 72 h
NKL (IL-2 2.5 ng/mL) [8] = experiment: as above; settings: 72 h
SNK-6 (IL-2 2.5 ng/mL) [9] = experiment: as above; settings: 72 h
YT (IL-2 2.5 ng/mL) [10] = experiment: as above; settings: 72 h
[11] = tested on: normal primary NK cells, pool 1 (3 donors) (IL-2 2.5 ng/mL); experiment: as above; settings: 72 h
[12] = tested on: normal primary NK cells, pool 1 (3 donors), resting (IL-2 0 ng/mL); experiment: as above; settings: 72 h
[13] = tested on: normal primary NK cells, pool 2 (3 donors) (IL-2 2.5 ng/mL); experiment: as above; settings: 72 h
[14] = tested on: normal primary NK cells, pool 3 (3 donors) (IL-2 2.5 ng/mL); experiment: as above; settings: 72 h
[15] = tested on: normal NK cells expanded with K562-aAPC; experiment: drug sensitivity score (DSS) (DSS units); higher = more sensitive; extreme values may be limits of the assay; settings: 72 h; IL-2 2.5 ng/mL
Experimental: as §1

DERL-7 (IL-2 2.5 ng/mL) [16] = experiment: as above; settings: 72 h
IMC-1 (IL-2 20 ng/mL) [17] = experiment: as above; settings: 72 h
KAI3 (IL-2 2.5 ng/mL) [18] = experiment: as above; settings: 72 h
KHYG-1 (IL-2 2.5 ng/mL) [19] = experiment: as above; settings: 72 h
NK-92 (IL-2 2.5 ng/mL) [20] = experiment: as above; settings: 72 h
NK-YS (IL-2 2.5 ng/mL) [21] = experiment: as above; settings: 72 h
NKL (IL-2 2.5 ng/mL) [22] = experiment: as above; settings: 72 h
SNK-6 (IL-2 2.5 ng/mL) [23] = experiment: as above; settings: 72 h
YT (IL-2 2.5 ng/mL) [24] = experiment: as above; settings: 72 h
[25] = tested on: normal primary NK cells, pool 1 (3 donors) (IL-2 2.5 ng/mL); experiment: as above; settings: 72 h
[26] = tested on: normal primary NK cells, pool 1 (3 donors), resting (IL-2 0 ng/mL); experiment: as above; settings: 72 h
[27] = tested on: normal primary NK cells, pool 2 (3 donors) (IL-2 2.5 ng/mL); experiment: as above; settings: 72 h
[28] = tested on: normal primary NK cells, pool 3 (3 donors) (IL-2 2.5 ng/mL); experiment: as above; settings: 72 h

Nc1ccn([C@@H]2O[C@H](CO)[C@@H](O)[C@@H]2O)c(=O)n1 [Cytarabine] (max concentration tested 10000 nM)
percent inhibition of viability [%]
Settings | 1 nM | 10 nM | 100 nM | 1000 nM | 10000 nM
DERL-7 (IL-2 2.5 ng/mL) [2] | -3.03 | 23.2 | 88.8 | 98.1 | 99.7
IMC-1 (IL-2 20 ng/mL) [3] | -2.71 | -1.64 | 59.5 | 98.2 | 99.6
KAI3 (IL-2 2.5 ng/mL) [4] | -13.4 | 12.5 | 67.4 | 95.8 | 95.5
KHYG-1 (IL-2 2.5 ng/mL) [5] | -3.64 | 17.1 | 88.3 | 105 | 102
NK-92 (IL-2 2.5 ng/mL) [6] | 0.96 | 0.98 | 50.8 | 95.5 | 97.8
NK-YS (IL-2 2.5 ng/mL) [7] | -6.32 | -1.48 | 14 | 77.5 | 92.9
NKL (IL-2 2.5 ng/mL) [8] | -6.71 | 6.58 | 60.2 | 94.3 | 93.6
SNK-6 (IL-2 2.5 ng/mL) [9] | 18.7 | 4.98 | 31.7 | 83.1 | 97.5
YT (IL-2 2.5 ng/mL) [10] | -3.82 | 0.15 | -0.65 | 19.1 | 28.4
[1] | 0.23 | -1.23 | 28.7 | 84.4 | 98.9
[11] | -4.48 | -4.56 | -4.83 | 23 | 80.4
[12] | -11.7 | -15.1 | -18.8 | 29.4 | 78.7
[13] | -14.2 | -13.4 | -1.98 | 13.2 | 79.9
[14] | -11.3 | -7.93 | -9.4 | 7.11 | 73.2

Settings | drug sensitivity score
DERL-7 (IL-2 2.5 ng/mL) [16] | 31.5
IMC-1 (IL-2 20 ng/mL) [17] | 25
KAI3 (IL-2 2.5 ng/mL) [18] | 26.2
KHYG-1 (IL-2 2.5 ng/mL) [19] | 30.8
NK-92 (IL-2 2.5 ng/mL) [20] | 23.6
NK-YS (IL-2 2.5 ng/mL) [21] | 16
NKL (IL-2 2.5 ng/mL) [22] | 24.4
SNK-6 (IL-2 2.5 ng/mL) [23] | 19.1
YT (IL-2 2.5 ng/mL) [24] | 3.34
[15] | 19
[25] | 7.89
[26] | 8.4
[27] | 6.63
[28] | 5.19

CNC(=O)c1ccc(-c2cnc3ncc(Cc4ccc5ncccc5c4)n3n2)cc1F [NVP-INC280] (max concentration tested 1000 nM)
percent inhibition of viability [%]
Settings | 0.1 nM | 1 nM | 10 nM | 100 nM | 1000 nM
DERL-7 (IL-2 2.5 ng/mL) [2] | -5.28 | 4.26 | -9.16 | -6.92 | -4.89
IMC-1 (IL-2 20 ng/mL) [3] | 0.35 | -0.99 | 7.3 | 10.2 | 14.7
KAI3 (IL-2 2.5 ng/mL) [4] | -3.13 | -7.87 | 2.81 | 8.6 | 10.3
KHYG-1 (IL-2 2.5 ng/mL) [5] | 0.53 | 0.71 | 6.28 | 8.45 | 7.71
NK-92 (IL-2 2.5 ng/mL) [6] | -4.47 | -11.1 | 1.26 | -6.37 | 7.6
NK-YS (IL-2 2.5 ng/mL) [7] | -3.18 | -2.55 | 2.09 | 4.91 | 7.49
NKL (IL-2 2.5 ng/mL) [8] | -14.8 | -12 | -3.62 | -0.32 | 1.94
SNK-6 (IL-2 2.5 ng/mL) [9] | 1.66 | -4.69 | 8.68 | 23.7 | 31.8
YT (IL-2 2.5 ng/mL) [10] | -0.04 | -0.12 | 2.87 | 3.88 | 14.8
[1] | 3.07 | -1.65 | 0.35 | 12.4 | 9.59
[11] | -3.26 | -0.85 | -0.05 | -8.05 | -1.86
[12] | -4.36 | 11.4 | -16.1 | -15.8 | -5.95
[13] | -5.16 | -9.82 | 0.45 | -1.98 | 7.71
[14] | -4.63 | -9.7 | -8.57 | -10.9 | -0.53

Settings | drug sensitivity score
DERL-7 (IL-2 2.5 ng/mL) [16] | 0
IMC-1 (IL-2 20 ng/mL) [17] | 0.81
KAI3 (IL-2 2.5 ng/mL) [18] | 0.03
KHYG-1 (IL-2 2.5 ng/mL) [19] | 0
NK-92 (IL-2 2.5 ng/mL) [20] | 0
NK-YS (IL-2 2.5 ng/mL) [21] | 0
NKL (IL-2 2.5 ng/mL) [22] | 0
SNK-6 (IL-2 2.5 ng/mL) [23] | 4.62
YT (IL-2 2.5 ng/mL) [24] | 0.42
[15] | 0.67
[25] | 0
[26] | 0
[27] | 0
[28] | 0
